From patent publication US11530244B2, “Cyclic polypeptides for PCSK9 inhibition” (priority 2018, dated 2022)
Starred links: 1 amine or outer side, 2 acyl side, 3 side chain; linkers in the order of their positions; H or OH if unused. Positions of bridges follow the written chain, without caps; N, C: chain ends. Non-standard residues stand in square brackets, D forms with d. Residues, ends and D or L forms follow the SMILES beside them. Groups on a side chain read outwards from the residue. *: point of attachment. X5 = O=C([C@@H]1C[C@H](SCc2ccc(C[*:3])cc2)CN1[*:1])[*:2]; NHCH2(1,3-C6H4)CH2CO = O=C(Cc1cccc(CN[*:1])c1)[*:2]; Pro(cis-4-OPh) = O=C(O)[C@@H]1C[C@H](Oc2ccccc2)CN1; Trp(5-OH) = N[C@@H](Cc1c[nH]c2ccc(O)cc12)C(=O)O; Trp(5-F) = N[C@@H](Cc1c[nH]c2ccc(F)cc12)C(=O)O; Phe(4-CH2NH2) = NCc1ccc(C[C@H](N)C(=O)O)cc1; Pro(cis-4-F) = O=C(O)[C@@H]1C[C@H](F)CN1; γGlu = O=C(O)[C@H](CCC(=O)[*:2])N[*:1]; mXylylene = c1cc(C[*:1])cc(C[*:2])c1; AEF = NCCOc1ccc(C[C@H](N)C(=O)O)cc1; Glutaryl = O=C(CCCC(=O)[*:2])[*:1]; Palmitoyl = CCCCCCCCCCCCCCCC(=O)*; Cha = N[C@@H](CC1CCCCC1)C(=O)O; NMeL = CN[C@@H](CC(C)C)C(=O)O; αMeP = C[C@@]1(C(=O)O)CCCN1; AEEEA = NCCOCCOCCOCC(=O)O; PEG2 = NCCOCCOCCC(=O)O; AEEA = NCCOCCOCC(=O)O; X2 = O=C(C[*:2])[*:1]; X28 = CC(C)(F)C(=O)*; Mpa = O=C(O)CCS

Key:
Assay type in all cases: binding
PCSK9 [1] = molecular target: T1, PCSK9 (Homo sapiens (Human), UniProt Q8NBP7); test: PCSK9 Alexa FRET Standard assay (displacement of AlexaFluor647 tagged cyclic peptide Reagent A); conditions: PCSK9 Alexa FRET Standard assay, 0.5 nM PCSK9, 20 nM AF cyclic peptide Reagent A; read-out: IC50
How it was run: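 TR-FRET displacement: 0.5 nM biotinylated PCSK9 with 1.25 nM Strep-Eu and 20 nM AlexaFluor-tagged cyclic peptide (final) in 50 mM HEPES pH 7.4, 0.15 M NaCl, 5 mM CaCl2, 0.01% BSA, 0.01% P20, ≥2 h at room temperature. IC50 from sigmoidal fit, converted to Ki via peptide KD; falling Eu counts flagged false positives.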

[2] = molecular target: human PCSK9 / human LDLR EGFa domain interaction (Homo sapiens (Human), UniProt Q8NBP7); test: TR-FRET assay of inhibition of the PCSK9-LDLR protein-protein interaction; conditions: TR-FRET, 20 nM human PCSK9, 20 nM human LDLR EGFa domain, 2 hours room temperature; read-out: IC50
How it was run: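 Readout is the TR-FRET signal between europium anti-6×His on his-tagged LDLR EGFa domain and Ulight streptavidin on biotinylated PCSK9, both proteins at 20 nM and both detection reagents at 5 nM. Incubation lasted 2 hours at room temperature; compounds were run in dose-response with a 4-parameter fit.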

PCSK9 [3] = molecular target: T1, PCSK9; test: PCSK9 Alexa FRET Plus assay (displacement of AlexaFluor647 tagged cyclic peptide Reagent B); conditions: Alexa FRET Plus, 0.5 nM PCSK9, 960 nM AF cyclic peptide Reagent B; read-out: IC50
How it was run: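 TR-FRET displacement with final 0.5 nM biotinylated PCSK9, 1.25 nM Strep-Eu and 960 nM AlexaFluor-tagged cyclic peptide in HEPES pH 7.4, NaCl, CaCl2, BSA, P20; ≥2 h at room temperature. IC50 from sigmoidal fit, converted to Ki using peptide KD. Falling europium counts flagged false positives.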

human PCSK9 / human LDLR EGFa domain interaction, sequence (Q8NBP7 153-692): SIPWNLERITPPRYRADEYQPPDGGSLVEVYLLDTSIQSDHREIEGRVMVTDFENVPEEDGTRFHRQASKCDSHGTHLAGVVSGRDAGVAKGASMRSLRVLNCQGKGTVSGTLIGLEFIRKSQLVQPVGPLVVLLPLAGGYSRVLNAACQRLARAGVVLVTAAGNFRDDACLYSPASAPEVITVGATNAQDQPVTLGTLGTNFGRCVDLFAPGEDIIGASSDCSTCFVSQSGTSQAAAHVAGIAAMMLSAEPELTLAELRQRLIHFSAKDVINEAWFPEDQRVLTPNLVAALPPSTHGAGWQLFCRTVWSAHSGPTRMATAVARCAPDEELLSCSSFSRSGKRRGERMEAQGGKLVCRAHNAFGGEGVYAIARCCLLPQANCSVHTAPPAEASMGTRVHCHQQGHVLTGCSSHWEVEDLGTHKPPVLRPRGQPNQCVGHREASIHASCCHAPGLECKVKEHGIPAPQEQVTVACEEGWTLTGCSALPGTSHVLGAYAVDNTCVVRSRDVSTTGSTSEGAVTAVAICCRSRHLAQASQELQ
human PCSK9 / human LDLR EGFa domain interaction, sequence (Q8NBP7 31-152 partner): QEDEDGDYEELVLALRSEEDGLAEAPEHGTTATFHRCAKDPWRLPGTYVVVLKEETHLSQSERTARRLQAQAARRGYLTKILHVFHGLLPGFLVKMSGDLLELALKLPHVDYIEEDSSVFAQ
T1 sequence (Q8NBP7 153-692): as the sequence (Q8NBP7 153-692) above

SMILES | IC50 (PCSK9 [1]) | IC50 [2] | IC50 (PCSK9 [3])
NCCCC[C@@H]1NC(=O)CCSCc2cccc(c2)CSC[C@@H](C(N)=O)NC(=O)[C@@H]2CCCN2C(=O)[C@H](Cc2ccc(O)cc2)NC(=O)[C@H](Cc2c[nH]cn2)NC(=O)[C@H](CC(=O)O)NC(=O)[C@H](Cc2c[nH]c3ccc(F)cc23)NC(=O)[C@H](CC2CCCCC2)NC(=O)CNC1=O [Compound 223] ([Mpa]KG[Cha][Trp(5-F)]DHYPC-NH2; linker 1-10 via mXylylene) | 0.11 to 100 nM | 0.1 to 100 nM | 100 to 500 nM
C[C@@]12CCCN1C(=O)[C@H](Cc1ccc(O)cc1)NC(=O)[C@H](Cc1cnc[nH]1)NC(=O)[C@H](CC(=O)O)NC(=O)[C@H](Cc1c[nH]c3ccc(O)cc13)NC(=O)[C@H](Cc1c[nH]c3ccc(F)cc13)NC(=O)CNC(=O)[C@H](CCCCN)NC(=O)CCSCc1cccc(c1)CSC[C@@H](C(N)=O)NC2=O [Compound 399] ([Mpa]KG[Trp(5-F)][Trp(5-OH)]DHY[αMeP]C-NH2; linker 1-10 via mXylylene) | 0.11 to 100 nM | 0.1 to 100 nM | 100 to 500 nM
C[C@@H]1NC(=O)CCCC(=O)NCc2ccc(cc2)C[C@@H](C(N)=O)NC(=O)[C@]2(C)CCCN2C(=O)[C@H](Cc2ccc(O)cc2)NC(=O)[C@H](Cc2cnc[nH]2)NC(=O)[C@H](CC(=O)O)NC(=O)[C@H](Cc2c[nH]c3ccc(F)cc23)NC(=O)[C@H](Cc2c[nH]c3ccc(F)cc23)NC(=O)CNC1=O [Compound 366] (AG[Trp(5-F)][Trp(5-F)]DHY[αMeP][Phe(4-CH2NH2)]-NH2; linker N-9 via Glutaryl) | 0.11 to 100 nM | 0.1 to 100 nM | 0.1 to 100 nM
COc1ccc(C[C@@H]2NC(=O)[C@H](Cc3cnc[nH]3)NC(=O)[C@H](CC(=O)O)NC(=O)[C@H](Cc3c[nH]c4ccc(F)cc34)NC(=O)[C@H](Cc3c[nH]c4ccc(F)cc34)NC(=O)[C@@H](C)NC(=O)[C@H](NC(C)=O)CCCCNC(=O)Cc3cccc(c3)CNC(=O)CC[C@@H](C(=O)O)NC(=O)[C@]3(C)CCCN3C2=O)cc1 [Compound 396] (Ac-[dK][dA][Trp(5-F)][Trp(5-F)]DHY(Me)[αMeP][γGlu][NHCH2(1,3-C6H4)CH2CO]; lactam 1-C) | 0.11 to 100 nM | 0.1 to 100 nM | 100 to 500 nM
COc1ccc(C[C@@H]2NC(=O)[C@@H]3CCCCC(=O)N[C@H]4C[C@@H](C(=O)N3)N(C4)C(=O)[C@H](Cc3c[nH]c4ccc(F)cc34)NC(=O)[C@H](Cc3c[nH]c4ccc(F)cc34)NC(=O)[C@@H](C)NC(=O)[C@H](CCCN=[N+]=[N-])NC(=O)CCSCc3cccc(c3)CCSCNC(=O)[C@]3(C)CCCN3C2=O)cc1 [Compound 520] | 0.11 to 100 nM | 0.1 to 100 nM | 0.1 to 100 nM
CC[C@H](C)[C@@H]1NC(=O)[C@@H]2CCCN2C(=O)[C@H](Cc2c[nH]c3ccc(F)cc23)NC(=O)[C@H](Cc2c[nH]c3ccc(F)cc23)NC(=O)[C@@H](C)NC(=O)[C@H](CCCCN)NC(=O)CCSCc2cccc(c2)CSC[C@@H](C(N)=O)NC(=O)[C@]2(C)CCCN2C(=O)[C@H](Cc2ccc(OC)cc2)NC1=O [Compound 007] ([Mpa]K[dA][Trp(5-F)][Trp(5-F)]PIY(Me)[αMeP]C-NH2; linker 1-10 via mXylylene) | 100 to 1000 nM | 0.1 to 100 nM | 500 to 5000 nM
COc1ccc(C[C@@H]2NC(=O)[C@H](Cc3ccc(OC)cc3)NC(=O)[C@@H](CC(C)C)NC(=O)[C@H]([C@@H](C)OC)NC(=O)CCSCc3cccc(c3)CSC[C@@H](C(N)=O)NC(=O)[C@@H]3CCCN3C(=O)[C@H](Cc3ccc(OC)cc3)NC(=O)[C@H](Cc3ccc(OC)cc3)NC(=O)[C@H](CC(C)C)NC2=O)cc1 [Compound 034] ([Mpa]T(Me)[dL]Y(Me)Y(Me)LY(Me)Y(Me)PC-NH2; linker 1-10 via mXylylene) | 0.11 to 100 nM | 0.1 to 100 nM | 0.1 to 100 nM
COc1ccc(C[C@@H]2NC(=O)[C@@H](CC(C)C)NC(=O)[C@H]([C@@H](C)OC)NC(=O)CCSCc3cccc(c3)CSC[C@@H](C(N)=O)NC(=O)[C@]3(C)CCCN3C(=O)[C@H](Cc3ccc(OC)cc3)NC(=O)[C@H]([C@@H](C)OC)NC(=O)[C@H](CC(C)C)N(C)C(=O)[C@H](Cc3ccc(OC)cc3)NC2=O)cc1 [Compound 035] ([Mpa]T(Me)[dL]Y(Me)Y(Me)[NMeL]T(Me)Y(Me)[αMeP]C-NH2; linker 1-10 via mXylylene) | 0.11 to 100 nM | 0.1 to 100 nM | 0.1 to 100 nM
COc1ccc(C[C@@H]2NC(=O)[C@H](Cc3cnc[nH]3)NC(=O)[C@H](CC(=O)O)NC(=O)[C@H](Cc3c[nH]c4ccc(F)cc34)NC(=O)[C@H](Cc3c[nH]c4ccc(F)cc34)NC(=O)[C@@H](C)NC(=O)[C@H](CCCCN)NC(=O)[C@@H](NC(C)=O)CC(=O)NCCOc3ccc(cc3)C[C@@H](C(N)=O)NC(=O)[C@]3(C)CCCN3C2=O)cc1 [Compound 349] (Ac-DK[dA][Trp(5-F)][Trp(5-F)]DHY(Me)[αMeP][AEF]-NH2; lactam 1-10) | 0.11 to 100 nM | 0.1 to 100 nM | 100 to 500 nM
NCCCC[C@@H]1NC(=O)CCSCc2cccc(c2)CSC[C@@H](C(N)=O)NC(=O)[C@@H]2C[C@H](Oc3ccccc3)CN2C(=O)[C@H](Cc2ccc(O)cc2)NC(=O)[C@H](Cc2cnc[nH]2)NC(=O)[C@H](CC(=O)O)NC(=O)[C@H](Cc2c[nH]c3ccc(F)cc23)NC(=O)[C@H](Cc2c[nH]c3ccc(F)cc23)NC(=O)CNC1=O [Compound 367] ([Mpa]KG[Trp(5-F)][Trp(5-F)]DHY[Pro(cis-4-OPh)]C-NH2; linker 1-10 via mXylylene) | 100 to 1000 nM | 0.1 to 100 nM | 500 to 5000 nM
NCCCC[C@@H]1NC(=O)CCSCc2ccc(cc2)CS[C@H]2C[C@@H](C(N)=O)N(C2)C(=O)[C@H](Cc2ccc(O)cc2)NC(=O)[C@H](Cc2cnc[nH]2)NC(=O)[C@H](CC(=O)O)NC(=O)[C@H](Cc2c[nH]c3ccc(F)cc23)NC(=O)[C@H](Cc2c[nH]c3ccc(F)cc23)NC(=O)CNC1=O [Compound 328] ([Mpa]KG[Trp(5-F)][Trp(5-F)]DHY[X5]-NH2; thioether 1-9) | 100 to 1000 nM | 0.1 to 100 nM | 500 to 5000 nM
NCCCC[C@@H]1NC(=O)CCCn2cc(nn2)CCC[C@@H](C(N)=O)NC(=O)[C@@H]2CCCN2C(=O)[C@H](Cc2ccc(O)cc2)NC(=O)[C@H](Cc2c[nH]cn2)NC(=O)[C@H](CC(=O)O)NC(=O)[C@H](Cc2c[nH]c3ccc(F)cc23)NC(=O)[C@H](Cc2c[nH]c3ccc(F)cc23)NC(=O)CNC1=O [Compound 152] | 100 to 1000 nM | 0.1 to 100 nM | 500 to 5000 nM
CC(=O)N[C@H]1CCCCNC(=O)COc2ccc(cc2)C[C@@H](C(N)=O)NC(=O)[C@]2(C)CCCN2C(=O)[C@H](Cc2ccc(O)cc2)NC(=O)[C@H](Cc2cnc[nH]2)NC(=O)[C@H](CC(=O)O)NC(=O)[C@H](Cc2c[nH]c3ccc(F)cc23)NC(=O)[C@H](Cc2c[nH]c3ccc(F)cc23)NC(=O)CNC1=O [Compound 365] (Ac-KG[Trp(5-F)][Trp(5-F)]DHY[αMeP]Y-NH2; linker 1-9 via X2) | 0.11 to 100 nM | 0.1 to 100 nM | 0.1 to 100 nM
C[C@@]12CCCN1C(=O)[C@H](Cc1ccc(O)cc1)NC(=O)[C@H]1CS[C@H]3CC[C@H](NC(=O)[C@H](Cc4c[nH]c5ccc(F)cc45)NC(=O)[C@H](Cc4c[nH]c5ccc(F)cc45)NC(=O)CNC(=O)[C@H](CCCCN)NC(=O)CCSCc4cccc(c4)CSC[C@@H](C(N)=O)NC2=O)C(=O)N31 [Compound 475] | 21000 to 50000 nM |  | 500 to 5000 nM
COc1ccc(C[C@@H]2NC(=O)[C@H]([C@@H](C)O)NC(=O)[C@@H]3C[C@H](F)CN3C(=O)[C@H](Cc3c[nH]c4ccc(F)cc34)NC(=O)[C@H](Cc3c[nH]c4ccc(F)cc34)NC(=O)[C@@H](C)NC(=O)[C@H](CCCCN)NC(=O)[C@@H](NC(=O)C(C)(C)F)CC(=O)NCCOc3ccc(cc3)C[C@@H](C(N)=O)NC(=O)[C@]3(C)CCCN3C2=O)cc1 [Compound 112] (X28-DK[dA][Trp(5-F)][Trp(5-F)][Pro(cis-4-F)]TY(Me)[αMeP][AEF]-NH2; lactam 1-10) | 0.11 to 100 nM |  | 100 to 500 nM
CCCCCCCCCCCCCCCC(=O)N[C@@H](CCC(=O)NCCOCCOCCC(=O)NCCOCCOCC(=O)NCCCC[C@H](NC(=O)COCCOCCOCCNC(=O)[C@@H]1CSCc2cccc(c2)CSCCC(=O)N[C@@H](CCCCN)C(=O)N[C@H](C)C(=O)N[C@@H](Cc2c[nH]c3ccc(F)cc23)C(=O)N[C@@H](Cc2c[nH]c3ccc(F)cc23)C(=O)N[C@@H](CC(=O)O)C(=O)N[C@@H](Cc2cnc[nH]2)C(=O)N[C@@H](Cc2ccc(O)cc2)C(=O)N2CCC[C@@]2(C)C(=O)N1)C(N)=O)C(=O)O [Compound 473] ([Mpa]K[dA][Trp(5-F)][Trp(5-F)]DHY[αMeP]C[AEEEA]K([AEEA-PEG2-γGlu-Palmitoyl])-NH2; linker 1-10 via mXylylene) | 21000 to 50000 nM |  | 500 to 5000 nM
